Among the data in patent US10316017B2, “COT modulators and methods of use thereof” (Gilead Sciences, Inc., priority 2015, dated 2019) are EC50 and IC50 values, retold here.

Assay [1] concerns TNFα production in LPS-stimulated human monocytes. The assay is described as follows: Cot Monocyte TNFα Cell Based Assay. Particulars: Homo sapiens, Monocyte, TNFα in LPS-stimulated human monocytes; read-out: EC50 TNF. Summed up: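 Percent-of-control values derive from TR-FRET ratios of TNFα in spun-down media, referenced to unstimulated and LPS-stimulated wells. Exposure: 1 h compound preincubation, then 50 pg/ml LPS for 4 h, both at 37 °C, with 0.5% final DMSO.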

In assay [2] the target is T1, human Cot catalytic domain (30-397 amino acids) (Homo sapiens, UniProt P41279).
T1 construct: Purified recombinant human Cot catalytic domain (30-397 amino acids) was purchased from Cama Biosciences; purchased Cama Biosciences (so in the source)
The assay is described as follows: High Throughput Cot Biochemical Assay (KinEASE TR-FRET). Particulars: Cot KinEASE TR-FRET (HTRF) biochemical assay, 400 μM ATP; read-out: IC50 HTRF. Summed up:
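Phosphorylation of 1 μM XL665-STK3 peptide by 5 nM Cot catalytic domain was measured by time-resolved FRET using a europium […] antibody. ATP was 400 μM; buffer was 10 mM MOPS pH 7.0 with Mg2+ and DTT.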

T1 sequence (P41279 30-397): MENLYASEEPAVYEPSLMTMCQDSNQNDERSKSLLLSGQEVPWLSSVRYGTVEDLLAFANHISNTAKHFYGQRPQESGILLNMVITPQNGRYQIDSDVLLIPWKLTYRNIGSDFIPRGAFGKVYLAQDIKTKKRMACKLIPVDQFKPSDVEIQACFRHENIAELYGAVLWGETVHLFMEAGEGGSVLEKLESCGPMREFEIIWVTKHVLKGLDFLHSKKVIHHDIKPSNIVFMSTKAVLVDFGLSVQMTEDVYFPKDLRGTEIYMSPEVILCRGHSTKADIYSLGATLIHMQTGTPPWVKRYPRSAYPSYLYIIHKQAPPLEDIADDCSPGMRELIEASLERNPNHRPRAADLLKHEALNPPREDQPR

As to `CC[C@@H](Nc1c(C#N)cnc2c(C#N)cc(N[C@H](c3cn(C4CC4)nn3)c3ccccc3Cl)cc12)c1ccccc1` [Example 210, 6-(((S)-(2-chlorophenyl)(1-cyclopropyl-1H-1,2,3-triazol-4-yl)methyl)amino)-4-(((R)-1-phenylpropyl)amino) quinoline-3,8-dicarbonitrile], in assay [1], the EC50 was 243 nM. Further, in assay [2], the concentration for half-maximal inhibition (IC50) was determined as 6 nM.

Take `CC(C)(C)CNc1c(C#N)cnc2c(C#N)cc(N[C@H](c3cn(C4CC4)nn3)c3ccccc3Cl)cc12` [Example 211, (S)-6-(((2-chlorophenyl)(1-cyclopropyl-1H-1,2,3-triazol-4-yl)methyl)amino)-4-(neopentylamino) quinoline-3,8-dicarbonitrile]: in assay [1], the concentration for a half-maximal effect (EC50) came out at 173 nM. Also, the IC50 in assay [2] worked out at 6 nM.

With `[2H][C@](Nc1cc(Cl)c2ncc(C#N)c(NC3(C)CC(F)(F)C3)c2c1)(c1ccc(F)cc1)c1cn(C2CC2)nn1` [Example 212, (S)-8-chloro-6-(((1-cyclopropyl-1H-1,2,3-triazol-4-yl)(4-fluorophenyl)methyl-d)amino)-4-((3,3-difluoro-1-methylcyclobutyl)amino) quinoline-3-carbonitrile], in assay [1], the EC50 is 2180 nM. Also, the concentration for half-maximal inhibition (IC50) in assay [2] is 169 nM.

Turning to `[2H][C@](Nc1cc(Cl)c2ncc(C#N)c(NC(C)(C)C(C)C)c2c1)(c1ccc(F)cc1)c1cn(C2CC2)nn1` [Example 213, (S)-8-chloro-6-(((1-cyclopropyl-1H-1,2,3-triazol-4-yl)(4-fluorophenyl)methyl-d)amino)-4-((2,3-dimethylbutan-2-yl)amino)quinoline-3-carbonitrile], the EC50 in assay [1] amounted to 407 nM. Also, the IC50 in assay [2] amounted to 24 nM.

Regarding `[2H][C@](Nc1cc(Cl)c2ncc(C#N)c(NC3(C)COC3)c2c1)(c1ccc(F)cc1)c1cn(C2CC2)nn1` [Example 214, (S)-8-chloro-6-(((1-cyclopropyl-1H-1,2,3-triazol-4-yl)(4-fluorophenyl)methyl-d)amino)-4-((3-methyloxetan-3-yl)amino)quinoline-3-carbonitrile], the concentration giving a half-maximal response (EC50) in assay [1] is 4220 nM. For the same compound, in assay [2], the half-maximal inhibitory concentration (IC50) is 151 nM.

For `[2H][C@](Nc1cc(Cl)c2ncc(C#N)c(NC3CCC3)c2c1)(c1ccc(F)cc1)c1cn(C2CC2)nn1` [Example 215, (S)-8-chloro-4-(cyclobutylamino)-6-(((1-cyclopropyl-1H-1,2,3-triazol-4-yl)(4-fluorophenyl)methyl-d)amino)quinoline-3-carbonitrile], the 50% effective concentration (EC50) in assay [1] is 2880 nM. Further, in assay [2], the concentration for half-maximal inhibition (IC50) stood at 119 nM.

`[2H][C@](Nc1cc(Cl)c2ncc(C#N)c(NC3(CC)CC3)c2c1)(c1ccc(F)cc1)c1cn(C2CC2)nn1` [Example 216, (S)-8-chloro-6-(((1-cyclopropyl-1H-1,2,3-triazol-4-yl)(4-fluorophenyl)methyl-d)amino)-4-((1-ethylcyclopropyl)amino)quinoline-3-carbonitrile]: the EC50 in assay [1] was 5720 nM. Moreover, the IC50 in assay [2] amounted to 492 nM.

Turning to `[2H][C@](Nc1cc(Cl)c2ncc(C#N)c(NC3(C#N)CC3)c2c1)(c1ccc(F)cc1)c1cn(C2CC2)nn1` [Example 217, (S)-8-chloro-4-((1-cyanocyclopropyl)amino)-6-(((1-cyclopropyl-1H-1,2,3-triazol-4-yl)(4-fluorophenyl)methyl-d)amino)quinoline-3-carbonitrile], in assay [1], the 50% effective concentration (EC50) was 3580 nM. The IC50 in assay [2] came out at 327 nM.

For `[2H][C@](Nc1cc(Cl)c2ncc(C#N)c(NC3(CC)CCC3)c2c1)(c1ccc(F)cc1)c1cn(C2CC2)nn1` [Example 218, (S)-8-chloro-6-(((1-cyclopropyl-1H-1,2,3-triazol-4-yl)(4-fluorophenyl)methyl-d)amino)-4-((1-ethylcyclobutyl)amino)quinoline-3-carbonitrile], the EC50 in assay [1] was determined as 5390 nM. Besides, the IC50 in assay [2] was determined as 432 nM.

With `[2H][C@](Nc1cc(Cl)c2ncc(C#N)c(NC3(C)CCC3)c2c1)(c1ccc(F)cc1)c1cn(C2CC2)nn1` [Example 219, (S)-8-chloro-6-(((1-cyclopropyl-1H-1,2,3-triazol-4-yl)(4-fluorophenyl)methyl-d)amino)-4-((1-methylcyclobutyl)amino)quinoline-3-carbonitrile], in assay [1], the concentration giving a half-maximal response (EC50) is 4930 nM. In addition, in assay [2], the half-maximal inhibitory concentration (IC50) stood at 534 nM.

Take `[2H][C@](Nc1cc(Cl)c2ncc(C#N)c(NC3CC3)c2c1)(c1ccc(F)cc1)c1cn(C2CC2)nn1` [Example 220, (S)-8-chloro-6-(((1-cyclopropyl-1H-1,2,3-triazol-4-yl)(4-fluorophenyl)methyl-d)amino)-4-(cyclopropylamino)quinoline-3-carbonitrile]: the half-maximal effective concentration (EC50) in assay [1] was determined as 1620 nM. Moreover, in assay [2], the concentration for half-maximal inhibition (IC50) turned out to be 296 nM.

`[2H][C@](Nc1cc(C)c2ncc(C#N)c(N[C@H](CC)c3ccccc3)c2c1)(c1ccc(F)cc1)c1cn(C2CC2)nn1` [Example 221, 6-(((S)-(1-cyclopropyl-1H-1,2,3-triazol-4-yl)(4-fluorophenyl)methyl-d)amino)-8-methyl-4-(((R)-1-phenylpropyl)amino)quinoline-3-carbonitrile]: in assay [1], the 50% effective concentration (EC50) stood at 2520 nM. The IC50 in assay [2] is 244 nM.

`[2H][C@](Nc1cc(Cl)c2ncc(C#N)c(NN(CC)c3ccccc3)c2c1)(c1ccc(F)cc1)c1cn(C2CC2)nn1` [Example 222, (S)-8-chloro-6-(((1-cyclopropyl-1H-1,2,3-triazol-4-yl)(4-fluorophenyl)methyl-d)amino)-4-(2-ethyl-2-phenylhydrazinyl)quinoline-3-carbonitrile]: the EC50 in assay [1] was over 10000 nM. Besides, the IC50 in assay [2] was 8200 nM.

For `[2H][C@](Nc1cc(Cl)c2ncc(C#N)c(NCC(C)(C)CC)c2c1)(c1ccc(F)cc1)c1cn(C2CC2)nn1` [Example 223, (S)-8-chloro-6-(((1-cyclopropyl-1H-1,2,3-triazol-4-yl)(4-fluorophenyl)methyl-d)amino)-4-((2,2-dimethylbutyl)amino)quinoline-3-carbonitrile], in assay [1], the 50% effective concentration (EC50) came out at 157 nM. For the same compound, the 50% inhibitory concentration (IC50) in assay [2] came to 5 nM.

In the case of `[2H][C@](Nc1cc(C2CC2)c2ncc(C#N)c(N[C@H](CC)c3ccccc3)c2c1)(c1ccc(F)cc1)c1cn(C2CC2)nn1` [Example 224, 8-cyclopropyl-6-(((S)-(1-cyclopropyl-1H-1,2,3-triazol-4-yl)(4-fluorophenyl)methyl-d)amino)-4-(((R)-1-phenylpropyl)amino)quinoline-3-carbonitrile], the EC50 in assay [1] came out at 397 nM. In assay [2], the half-maximal inhibitory concentration (IC50) turned out to be 28 nM.

Take `[2H][C@](Nc1cc(Cl)c2ncc(C#N)c(NCC(C)(C)COC)c2c1)(c1ccc(F)cc1)c1cn(C2CC2)nn1` [Example 225, (S)-8-chloro-6-(((1-cyclopropyl-1H-1,2,3-triazol-4-yl)(4-fluorophenyl)methyl-d)amino)-4-((3-methoxy-2,2-dimethylpropyl)amino) quinoline-3-carbonitrile]: the half-maximal effective concentration (EC50) in assay [1] turned out to be 800 nM. Further, in assay [2], the IC50 stood at 38 nM.

As to `[2H][C@](Nc1cc(Cl)c2ncc(C#N)c(NC[C@@H](C)c3ccccc3)c2c1)(c1ccc(F)cc1)c1cn(C2CC2)nn1` [Example 226, 8-chloro-6-(((S)-(1-cyclopropyl-1H-1,2,3-triazol-4-yl)(4-fluorophenyl)methyl-d)amino)-4-(((S)-2-phenylpropyl)amino) quinoline-3-carbonitrile], the concentration giving a half-maximal response (EC50) in assay [1] was found to be 606 nM. Besides, the 50% inhibitory concentration (IC50) in assay [2] was 16 nM.

Take `[2H][C@](Nc1cc(Cl)c2ncc(C#N)c(N[C@H](C)c3ccccc3)c2c1)(c1ccc(F)cc1)c1cn(C2CC2)nn1` [Example 227, 8-chloro-6-(((S)-(1-cyclopropyl-1H-1,2,3-triazol-4-yl)(4-fluorophenyl)methyl-d)amino)-4-(((R)-1-phenylethyl)amino) quinoline-3-carbonitrile]: in assay [1], the half-maximal effective concentration (EC50) worked out at 426 nM. Also, in assay [2], the IC50 is 11 nM.

For the compound `[2H][C@@](Nc1cc(Cl)c2ncc(C#N)c(N[C@@H]3CCCC[C@@H]3NC(=O)OC(C)(C)C)c2c1)(c1ccc(F)cc1)c1cn(C2CC2)nn1` [Example 229, tert-butyl ((1S,2R)-2-((8-chloro-3-cyano-6-(((S)-(1-cyclopropyl-1H-1,2,3-triazo1-4-yl)(4-fluorophenyl)methyl-d)amino)quinolin-4-yl)amino)cyclohexyl) carbamate], the EC50 in assay [1] was over 10000 nM. In addition, the IC50 in assay [2] worked out at 2610 nM.

Take `[2H][C@](Nc1cc(Cl)c2ncc(C#N)c(N[C@H]3CCCC[C@H]3N)c2c1)(c1ccc(F)cc1)c1cn(C2CC2)nn1` [Example 230, 4-(((1S,2R)-2-aminocyclohexyl)amino)-8-chloro-6-(((S)-(1-cyclopropyl-1H-1,2,3-triazol-4-yl)(4-fluorophenyl)methyl-d)amino)quinoline-3-carbonitrile]: in assay [1], the half-maximal effective concentration (EC50) is over 10000 nM. In assay [2], the IC50 worked out at 337 nM.

As to `[2H][C@](Nc1cc(C2CC2)c2ncc(C#N)c(NCC(C)(C)C)c2c1)(c1ccc(F)cc1)c1cn(C2CC2)nn1` [Example 232, (S)-8-cyclopropyl-6-(((1-cyclopropyl-1H-1,2,3-triazol-4-yl)(4-fluorophenyl)methyl-d)amino)-4-(neopentylamino)quinoline-3-carbonitrile], the EC50 in assay [1] amounted to 2440 nM. In assay [2], the IC50 stood at 215 nM.

As for `[2H][C@](Nc1cc(Cl)c2ncc(C#N)c(NCC(C)(C)C)c2c1)(c1cccc(C#N)c1)c1cn(C(C)(C)C)nn1` [Example 233, (S)-6-(((1-(tert-butyl)-1H-1,2,3-triazol-4-yl)(3-cyanophenyl)methyl-d)amino)-8-chloro-4-(neopentylamino)quinoline-3-carbonitrile], the concentration for a half-maximal effect (EC50) in assay [1] came to 259 nM. The 50% inhibitory concentration (IC50) in assay [2] is 5 nM.
